Measurements as given in patent US20040038855A1 (priority 1999, published 2004).
Like-named read-outs stand apart in the source and are kept apart here.

Assays:
[1] = biological target: T1, human Histamine H1 receptor (Homo sapiens, UniProt P35367); assay: Binding affinity at the human histamine H1 receptor
T1 construct: expressed in transfected cells
Description: (§1) Other receptors: Cell membranes expressing human dopamine D1, D2, D4 and rat D3 receptors were purchased through BioSignal, Inc. (Montreal, Canada). Binding assays using the histamine H1 receptor; dopamine receptors; and α1A, α1B, and α2 adrenergic receptors may be carried out according to the procedures described in U.S. Pat. No. 5,780,485, the disclosure of which is hereby incorporated by reference in its entirety into this application. Binding assays using the dopamine D5 receptor may be carried out according to the procedures described in U.S. Pat. No. 5,882,855, the disclosure of which is hereby incorporated by reference in its entirety into this application. Binding assays for the human α1D adrenergic receptor may be carried out according to the procedures described in U.S. Pat. No. 6,156,518, the disclosure of which is hereby incorporated by reference in its entirety into this application.

[2] = biological target: T2, human Dopamine D2 receptor (Homo sapiens, UniProt P14416); assay: Binding affinity at the human dopamine D2 receptor; conditions: Table 3c; read-out: hD2 Ki
T2 construct: purchased BioSignal, Inc. (Montreal, Canada)
Description: as §1

rat MCH1 receptor = biological target: T3, rat MCH1 receptor (Rattus norvegicus, UniProt P97639); assay: Binding affinity (Ki) at the rat MCH1 receptor
T3 construct: expressed in transfected cells
Method: For binding assays, pellets of transfected cells are suspended in ice-cold buffer (20 mM Tris.HCl, 5 mM EDTA, pH 7.4) and homogenized by sonication for 7 sec. The cell lysates are centrifuged at 200×g for 5 min at 4° C. The supernatants are then centrifuged at 40,000×g for 20 min at 4° C. The resulting pellets are washed once in the homogenization buffer and suspended in binding buffer (see methods for radioligand binding). Protein concentrations are determined by the method of Bradford (1976) using bovine serum albumin as the standard. Binding assays are usually performed immediately, however it is possible to prepare membranes in batch and store frozen in liquid nitrogen for future use.
Binding is performed at 25° C. for 1 hr. Incubations are terminated by rapid vacuum filtration over GF/C glass fiber filters, presoaked in 5% PEI using 50 mM Tris pH 7.4 containing 0.01% triton X-100 as wash buffer.
A methanolic solution of methyl (4S)-3-({[3-(4-[3-(acetylamino)phenyl]-3,6-dihydro-1(2H)pyridinyl)propyl]amino}carbonyl)-4-(3,4-difluorophenyl)-6-(methoxymethyl)-2-oxo-1,2,3,4-tetrahydro-5-pyrimidinecarboxylate was exposed to tritium gas at 1 atmosphere pressure in the presence of 5% palladium on carbon with stirring overnight to give the tritiated methyl (4S)-3-{[(3-{4-[3-(acetylamino)phenyl]-1-piperidinyl}propyl)amino]carbonyl}-4-(3,4-difluorophenyl)-6-(methoxymethyl)-2-oxo-1,2,3,4-tetrahydro-5-pyrimidinecarboxylate ((+)-isomer) After purification by reverse phase HPLC (Hypersil ODS, 4.6×100 mm, methanol:H2O:Et3N 10:90:1 to 100:0:1 in 15 min at 1.0 mL/min, with radiochemical and UV detection), this product was used as a radioligand in the MCH1 binding assays. The same procedure was carried out with H2 gas in place of ^3H2 to afford the non-radioactive version of Compound 10.

[3] = biological target: T4, human Alpha-1a Adrenergic receptor (Homo sapiens, UniProt P35348); assay: Binding affinity at the human alpha-1A adrenergic receptor
T4 construct: expressed in transfected cells
T4 sequence (P35348 1-466): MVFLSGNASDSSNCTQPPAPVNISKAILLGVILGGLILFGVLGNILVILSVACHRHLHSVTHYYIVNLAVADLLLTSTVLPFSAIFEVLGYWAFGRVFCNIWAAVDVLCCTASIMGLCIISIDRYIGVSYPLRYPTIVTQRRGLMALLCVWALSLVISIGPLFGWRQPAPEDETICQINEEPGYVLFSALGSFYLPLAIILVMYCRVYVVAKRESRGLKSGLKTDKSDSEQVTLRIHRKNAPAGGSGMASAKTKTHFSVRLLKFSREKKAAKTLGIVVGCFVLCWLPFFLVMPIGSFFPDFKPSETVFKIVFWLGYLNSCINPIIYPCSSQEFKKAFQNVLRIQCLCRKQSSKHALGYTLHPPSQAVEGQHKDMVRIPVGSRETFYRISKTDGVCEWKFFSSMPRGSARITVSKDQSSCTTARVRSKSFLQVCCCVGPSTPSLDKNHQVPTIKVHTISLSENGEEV
Description: as §1

[4] = Examples 38-141, read-out: Ki (nM) rMCH1
[5] = Table 3c, read-out: hAlpha-1a Ki

T2 sequence (P14416 whole entry): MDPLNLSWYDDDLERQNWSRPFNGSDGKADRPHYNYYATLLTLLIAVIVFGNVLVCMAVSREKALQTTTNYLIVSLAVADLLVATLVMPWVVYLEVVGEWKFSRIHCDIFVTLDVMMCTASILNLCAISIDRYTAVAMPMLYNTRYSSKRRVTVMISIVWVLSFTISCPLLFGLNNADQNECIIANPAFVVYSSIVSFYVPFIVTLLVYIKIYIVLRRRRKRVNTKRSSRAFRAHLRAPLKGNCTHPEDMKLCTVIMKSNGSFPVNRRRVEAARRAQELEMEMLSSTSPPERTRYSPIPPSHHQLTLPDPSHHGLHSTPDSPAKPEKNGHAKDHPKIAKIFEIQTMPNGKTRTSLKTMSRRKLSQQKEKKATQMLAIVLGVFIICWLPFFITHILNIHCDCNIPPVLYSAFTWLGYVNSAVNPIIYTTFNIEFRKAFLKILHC
T3 sequence (P97639 whole entry): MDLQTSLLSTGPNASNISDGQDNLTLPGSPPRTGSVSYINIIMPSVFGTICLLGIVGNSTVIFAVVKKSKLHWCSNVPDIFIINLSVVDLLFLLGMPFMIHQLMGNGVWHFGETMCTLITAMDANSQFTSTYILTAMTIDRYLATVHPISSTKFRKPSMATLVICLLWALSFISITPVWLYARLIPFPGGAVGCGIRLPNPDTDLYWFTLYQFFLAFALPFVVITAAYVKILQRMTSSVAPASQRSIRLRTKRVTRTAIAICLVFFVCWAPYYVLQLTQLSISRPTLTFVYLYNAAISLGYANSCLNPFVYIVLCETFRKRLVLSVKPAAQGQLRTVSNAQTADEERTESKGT
T1 sequence (P35367 whole entry): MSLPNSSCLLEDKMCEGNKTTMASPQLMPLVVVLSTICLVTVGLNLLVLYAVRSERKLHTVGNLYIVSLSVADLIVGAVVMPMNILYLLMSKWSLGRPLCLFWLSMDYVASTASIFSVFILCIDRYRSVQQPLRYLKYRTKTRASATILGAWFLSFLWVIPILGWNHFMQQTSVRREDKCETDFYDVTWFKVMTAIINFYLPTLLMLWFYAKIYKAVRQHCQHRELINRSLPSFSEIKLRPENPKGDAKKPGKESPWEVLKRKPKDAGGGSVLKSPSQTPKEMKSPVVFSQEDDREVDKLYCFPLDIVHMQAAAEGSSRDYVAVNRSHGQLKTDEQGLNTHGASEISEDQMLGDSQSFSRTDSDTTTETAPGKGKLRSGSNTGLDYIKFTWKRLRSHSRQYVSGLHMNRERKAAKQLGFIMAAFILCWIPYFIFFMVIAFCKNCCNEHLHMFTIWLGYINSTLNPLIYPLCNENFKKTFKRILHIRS

| SMILES | Ki ([1]; Table 3c, read-out: hH1 Ki) [nM] | Ki [2] [nM] | Ki (rat MCH1 receptor; [4]) [nM] | Ki (rat MCH1 receptor; Table 3c, read-out: rMCH1 Ki) [nM] | Ki [3, 5] [nM] | Ki [1] [nM] | Ki (rat MCH1 receptor) [nM] | Ki (rat MCH1 receptor; read-out: rMCH1 Ki, Table 3c) [nM] | Ki [3] [nM] |
| --- | --- | --- | --- | --- | --- | --- | --- | --- | --- |
| COCC1=C(C(=O)NCCCN2CCC(c3cccc(NC(=O)C(C)C)c3)CC2)[C@@H](c2ccc(F)c(F)c2)NC(=O)N1 [Example 50] | 7470 | 19800 | 13.7 | 13.7 | 10400 | – | – | – | – |
| COCC1=C(C(=O)OC)[C@H](c2ccc(F)c(F)c2)N(C(=O)NCCCN2CCC(c3cccc(N)c3)CC2)C(=O)N1 [Example 38, METHYL (4S)-3-[({3-[4-(3-AMINOPHENYL)-1-PIPERIDINYL]PROPYL}AMINO)CARBONYL]-4-(3,4-DIFLUOROPHENYL)-6-(METHOXYMETHYL)-2-OXO-1,2,3,4-TETRAHYDRO-5-PYRIMIDINECARBOXYLATE] | 379 | 2370 | 1.34 | 1.34 | 23.8 | – | – | – | – |
| CC(=O)Nc1cccc(C2CCN(CCCC(=O)c3ccc(Cl)cc3)CC2)c1 [Example 65] | 1730 | 1430 | 69 | 69 | 26.4 | – | – | – | – |
| CC(C)C(=O)Nc1cccc(C2CCN(CC[C@H](Oc3ccc(C(F)(F)F)cc3)c3ccccc3)CC2)c1 [Example 109] | 1320 | 191 | 7.1 | 7.1 | 221 | – | – | – | – |
| CC(C)C(=O)Nc1cccc(C2CCN(Cc3cc(C(F)(F)F)cc(C(F)(F)F)c3)CC2)c1 [Example 103] | 36900 | > 50000 | 52 | 52 | > 50000 | – | – | – | – |
| COCC(=O)Nc1cccc(C2CCN(CCCNC(=O)N3C(=O)NC(COC)=C(C(=O)OC)[C@@H]3c3ccc(F)c(F)c3)CC2)c1 [Example 39, METHYL (4S)-4-(3,4-DIFLUOROPHENYL)-3-({[3-(4-{3-[(METHOXYACETYL)AMINO]PHENYL}-1-PIPERIDINYL)PROPYL]AMINO}CARBONYL)-6-(METHOXYMETHYL)-2-OXO-1,2,3,4-TETRAHYDRO-5-PYRIMIDINECARBOXYLATE] | 5660 | 25100 | 3.33 | 3.33 | 25.5 | – | – | – | – |
| COc1cc(C#N)ccc1O[C@@H](CCN1CCC(c2cccc(NC(=O)C(C)C)c2)CC1)c1ccccc1 [Example 118] | 25300 | 319 | 12.8 | 12.8 | 719 | – | – | – | – |
| CC(=O)c1ccccc1O[C@H](CCN1CCC(c2cccc(NC(=O)C(C)C)c2)CC1)c1ccccc1 [Example 120] | 6990 | 313 | 14.8 | 14.8 | 1140 | – | – | – | – |
| COc1cccc(O[C@@H](CCN2CCC(c3cccc(NC(=O)C(C)C)c3)CC2)c2ccccc2)c1 [Example 117] | 969 | 281 | 13.6 | 13.6 | 310 | – | – | – | – |
| CC(=O)Nc1cccc(C2CCN(CCCC(=O)c3ccc(C)c(C)c3)CC2)c1 [Example 57] | 823 | 6090 | 90 | 90 | 49 | – | – | – | – |
| CC(=O)Nc1cccc(C2CCN(CCCNC(=O)N3C(=O)OC[C@@H]3c3cc(F)cc(F)c3)CC2)c1 [Example 128] | 33100 | 41500 | 31.4 | 31.4 | 645 | – | – | – | – |
| CCOc1ccccc1O[C@@H](CCN1CCC(c2cccc(NC(=O)C(C)C)c2)CC1)c1ccccc1 [Example 136] | 9790 | 833 | 14.3 | 14.3 | 620 | – | – | – | – |
| CC(=O)Nc1cccc(C2CCN(CCCNC(=O)N3C(=O)NC(C)=C(C(C)=O)C3c3cc(F)c(F)c(F)c3)CC2)c1 (stereo not shown) [Example 51] | 1230 | 6640 | 0.79 | 0.79 | 10.1 | – | – | – | – |
| CC(C)C(=O)Nc1cccc(C2CCN(CC[C@@H](Oc3ccccc3)c3ccccc3)CC2)c1 [Example 112] | – | 435 | – | – | – | 32.5 | 22.3 | 22.3 | 55 |
| COC(CCN1CCC(c2cccc(NC(=O)C(C)C)c2)CC1)c1ccccc1 (stereo not shown) [Example 93] | 16700 | 35000 | 29.1 | 29.1 | 1090 | – | – | – | – |
| CC(=O)Nc1cccc(C2CCN(CCCNC(=O)N3C(=O)O[C@H](C)C3c3ccc(F)c(F)c3)CC2)c1 (stereo partly shown) [Example 131] | 2840 | 19000 | 11.8 | 11.8 | 2470 | – | – | – | – |
| COCC1=C(C(=O)OC)[C@H](c2ccc(F)c(F)c2)N(C(=O)NCCCN2CCC(c3cccc(NC(=O)CC(C)C)c3)CC2)C(=O)N1 [Example 42, METHYL (4S)-4-(3,4-DIFLUOROPHENYL)-6-(METHOXYMETHYL)-3-({[3-(4-{3-[(3-METHYLBUTANOYL)AMINO]PHENYL}-1-PIPERIDINYL)PROPYL]AMINO}CARBONYL)-2-OXO-1,2,3,4-TETRAHYDRO-5-PYRIMIDINECARBOXYLATE] | 7800 | 3270 | 0.6 | 0.6 | 10.9 | – | – | – | – |
| COCC1=C(C(=O)OC)[C@H](c2ccc(F)c(F)c2)N(C(=O)NCCCN2CCC(c3cccc(NC(=O)CC(C)(C)C)c3)CC2)C(=O)N1 [Example 40, METHYL (4S)-4-(3,4-DIFLUOROPHENYL)-3-({[3-(4-{3-[(3,3-DIMETHYLBUTANOYL)AMINO]PHENYL}-1-PIPERIDINYL)PROPYL]AMINO}CARBONYL)-6-(METHOXYMETHYL)-2-OXO-1,2,3,4-TETRAHYDRO-5-PYRIMIDINECARBOXYLATE] | 7120 | 2650 | 2.72 | 2.72 | 8.72 | – | – | – | – |
| CCC(C)C(=O)Nc1cccc(C2CCN(CCCNC(=O)C3=C(COC)NC(=O)N[C@@H]3c3ccc(F)c(F)c3)CC2)c1 (stereo partly shown) [Example 48] | 7770 | > 50000 | 22.1 | 22.1 | 16600 | – | – | – | – |
| CC(C)C(=O)Nc1cccc(C2CCN(CC[C@H](Oc3ccc(Br)cc3)c3ccccc3)CC2)c1 [Example 116] | 546 | 52 | 0.923 | 0.923 | 22.3 | – | – | – | – |
